From patent publication US7915012B2, “Methods for screening for inhibitors of TRPV2 activation” (Korea University Industry and Academic Collaboration …, priority 2008, dated 2011)
Entries after “also recorded” stand apart in the source; their conditions may differ.

Key:
Details in all cases: 100 μM probenecid
[1] = biological target: T1, rTRPV4 (Rattus norvegicus, UniProt Q9ERZ8); experiment: Fluo-3 calcium imaging in TRPV4 transfected HEK293T cell line; format: cell-based
T1 construct: expressed in transfected cells; host or cells: HEK293T (ATCC CRL-11268)
T1 sequence (Q9ERZ8 whole entry): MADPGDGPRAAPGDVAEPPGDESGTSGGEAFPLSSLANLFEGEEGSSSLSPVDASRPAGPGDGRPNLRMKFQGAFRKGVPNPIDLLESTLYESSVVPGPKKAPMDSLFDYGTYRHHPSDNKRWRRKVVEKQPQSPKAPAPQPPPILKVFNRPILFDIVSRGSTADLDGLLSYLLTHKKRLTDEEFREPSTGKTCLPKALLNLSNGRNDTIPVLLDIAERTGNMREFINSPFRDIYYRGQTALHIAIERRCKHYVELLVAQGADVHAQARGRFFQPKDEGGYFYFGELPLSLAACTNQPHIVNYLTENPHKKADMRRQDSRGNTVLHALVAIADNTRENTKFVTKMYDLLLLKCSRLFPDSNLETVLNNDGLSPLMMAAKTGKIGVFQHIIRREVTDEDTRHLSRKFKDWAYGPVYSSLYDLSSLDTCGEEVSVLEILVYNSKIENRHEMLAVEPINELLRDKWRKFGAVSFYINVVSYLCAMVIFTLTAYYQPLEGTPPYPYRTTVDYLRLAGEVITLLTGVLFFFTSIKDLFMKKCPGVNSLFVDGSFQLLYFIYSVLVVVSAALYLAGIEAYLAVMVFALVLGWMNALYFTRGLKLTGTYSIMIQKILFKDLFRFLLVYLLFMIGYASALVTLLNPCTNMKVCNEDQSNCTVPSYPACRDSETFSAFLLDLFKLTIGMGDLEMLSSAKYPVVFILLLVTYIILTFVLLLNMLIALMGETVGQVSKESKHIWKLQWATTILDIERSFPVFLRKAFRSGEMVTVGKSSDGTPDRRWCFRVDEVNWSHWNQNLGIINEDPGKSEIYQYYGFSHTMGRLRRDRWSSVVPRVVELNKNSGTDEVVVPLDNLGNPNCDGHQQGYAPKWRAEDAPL
Description: (§1) HEK293T cell line (ATCC CRL-1 1268) was transiently transfected with plasmid DNA containing polynucleotide encoding […] (SEQ. ID. NO: 1), rTRPV2 (SEQ. ID. NO: 2), mTRPV3 (SEQ. ID. NO: 3), rTRPV4 (SEQ. ID. NO: 4), mTRPM8 (SEQ. ID. NO: 5) or mTRPA1 (SEQ. ID. NO: 6).
(§2) Particularly, the HEK293T cell line was transiently transfected with individual TRP channel plasmid (pcDNA3.1 containing polynucleotide encoding rTRPV1, rTRPV2, mTRPV3, rTRPV4, mTRPM8 or mTRPA1), and 600 ng/well of pCDNA3 (Invitrogen Corp., USA; containing green fluorescent protein (GFP) cDNA) using Fugene6 (Roche Diagnostics, USA) according to manufacturer's instruction. The transformed cells were cultured in DMEM/F12 containing 10% FBS and 1% penicillin/streptomycin in a CO2 incubator for 24 hours. The cells were replated onto poly-L-lysine-coated glass coverslips, followed by further culture for 10-24 hours.
(§3) Particularly, the transfected cell line of Example <3-1> and Example <3-2> was loaded with Fluo-3AM (5 μM; Sigma Aldrich, USA) in the bath solution (140 mM NaCl, 5 mM KCl, 2 mM CaCl2, 1 mM MgCl2, 10 mM HEPES; adjusted to pH 7.4 with NaOH) containing 0.02% pluronic acid (Invitrogen, USA) at 37° C. for 1 hour. […]

[2] = system: trigeminal neurons; experiment: Calcium imaging of cultured trigeminal neurons; format: cell-based, ICR mice
Description: Trigeminal ganglia were dissected out of decapitated adult ICR mice in cold PBS and treated with 1.5 mg/ml of collagenase/dispase (Roche Diagnostics, USA) at 37° for 45 min, and then treated with 0.25% trypsin (Invitrogen, USA) for 15 min. The trigeminal neurons prepared thereby were then plated onto poly-L-lysinecoated coverslips in DMEM/F12 containing 10% FBS, 1% penicillin/streptomycin and 5 ng/ml of 2.5S NGF (Invitrogen, USA), followed by culture in a CO2 incubator for 48-72 hours.
Calcium imaging was performed with a confocal microscope (LSM5 Pascal, Carl Zeiss, Germany), and time-lapse images (excitation 488 nm/emission 514 nm) were collected every 3 seconds using Carl Zeiss ratio tool software (Carl Zeiss, Germany).
The trigeminal neurons prepared by the same manner as described in Example 2 were delayed-treated with 100 μM probenecid or 4 kinds of TRP activators: TRPM8 activator menthol 400 μM, TRPA1 activator cinnamaldehyde (MP Biomedicals, USA) 300 μM, TRPV1 activator capsaicin (Sigma-Aldrich, USA) 2 μM and TRPV1-3 activator 2-APB 300 μM.
The trigeminal neurons prepared by the same manner as described in Example 2 were treated with 300 μM 2-APB+100 μM probenecid, 300 μM 2-APB+2 μM capsaicin, 300 μM 2-APB+300 μM cinnamaldehyde+2 μM capsaicin, 300 μM 2-APB +2 μM capsaicin +100 μM probenecid, 300 μM 2-APB +400 μM menthol and 300 μM 2-APB, respectively.

[3] = biological target: T2, rTRPV1 (Rattus norvegicus, UniProt O35433); experiment: Fluo-3 calcium imaging in TRPV1 transfected HEK293T cell line; format: cell-based
T2 construct: expressed in transfected cells; host or cells: HEK293T (ATCC CRL-11268)
T2 sequence (O35433 whole entry): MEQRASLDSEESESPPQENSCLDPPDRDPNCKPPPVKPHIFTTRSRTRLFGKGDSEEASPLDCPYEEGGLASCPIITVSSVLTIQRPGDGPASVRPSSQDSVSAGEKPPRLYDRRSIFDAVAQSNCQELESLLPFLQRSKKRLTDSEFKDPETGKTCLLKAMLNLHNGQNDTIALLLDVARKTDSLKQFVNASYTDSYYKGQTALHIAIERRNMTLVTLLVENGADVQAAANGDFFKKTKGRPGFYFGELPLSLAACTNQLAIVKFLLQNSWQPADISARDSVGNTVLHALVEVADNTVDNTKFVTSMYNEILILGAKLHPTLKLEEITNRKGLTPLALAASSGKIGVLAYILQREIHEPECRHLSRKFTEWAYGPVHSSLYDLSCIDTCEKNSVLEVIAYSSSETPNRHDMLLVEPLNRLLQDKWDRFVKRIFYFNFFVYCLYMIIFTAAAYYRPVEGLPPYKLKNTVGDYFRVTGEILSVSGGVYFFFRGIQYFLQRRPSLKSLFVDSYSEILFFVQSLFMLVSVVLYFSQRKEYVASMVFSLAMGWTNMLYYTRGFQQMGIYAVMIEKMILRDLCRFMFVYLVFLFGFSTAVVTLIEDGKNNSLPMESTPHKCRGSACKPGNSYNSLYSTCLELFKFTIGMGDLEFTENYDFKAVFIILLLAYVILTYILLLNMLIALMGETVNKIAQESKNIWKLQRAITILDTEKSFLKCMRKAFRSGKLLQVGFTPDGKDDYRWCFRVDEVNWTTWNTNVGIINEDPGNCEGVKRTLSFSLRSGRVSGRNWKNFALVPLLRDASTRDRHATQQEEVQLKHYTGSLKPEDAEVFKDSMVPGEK
Description: as §1, §2, §3

[4] = biological target: T3, mTRPV3 (Mus musculus, UniProt Q8K424, A9V); experiment: Fluo-3 calcium imaging in TRPV3 transfected HEK293T cell line; format: cell-based
T3 construct: expressed in transfected cells; host or cells: HEK293T (ATCC CRL-11268)
T3 sequence (Q8K424 1-791 A9V): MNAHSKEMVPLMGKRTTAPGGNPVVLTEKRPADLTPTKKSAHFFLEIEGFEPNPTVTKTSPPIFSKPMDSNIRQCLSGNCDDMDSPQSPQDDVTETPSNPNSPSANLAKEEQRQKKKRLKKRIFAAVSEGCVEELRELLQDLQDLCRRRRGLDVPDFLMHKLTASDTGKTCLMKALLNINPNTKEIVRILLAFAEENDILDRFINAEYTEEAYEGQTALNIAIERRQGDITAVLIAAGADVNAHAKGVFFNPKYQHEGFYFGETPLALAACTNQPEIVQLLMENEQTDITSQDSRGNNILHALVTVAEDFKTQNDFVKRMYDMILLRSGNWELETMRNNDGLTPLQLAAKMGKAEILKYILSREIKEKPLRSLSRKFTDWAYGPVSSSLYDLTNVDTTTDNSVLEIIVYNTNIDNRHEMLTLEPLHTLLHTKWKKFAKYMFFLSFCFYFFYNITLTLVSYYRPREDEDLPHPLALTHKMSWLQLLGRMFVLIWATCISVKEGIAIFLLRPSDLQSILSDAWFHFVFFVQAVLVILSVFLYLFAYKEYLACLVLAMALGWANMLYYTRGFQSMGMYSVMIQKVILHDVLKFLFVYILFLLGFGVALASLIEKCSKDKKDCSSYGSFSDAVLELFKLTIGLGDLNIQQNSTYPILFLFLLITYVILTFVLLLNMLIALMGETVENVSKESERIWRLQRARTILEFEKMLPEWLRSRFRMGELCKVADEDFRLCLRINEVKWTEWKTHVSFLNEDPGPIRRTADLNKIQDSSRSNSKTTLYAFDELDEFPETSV
Description: as §1, §2, §3

For CCCN(CCC)S(=O)(=O)c1ccc(C(=O)O)cc1 [probenecid], the “TRPV4 activation (calcium imaging)” value [1] was “only TRPV2 was activated; also recorded: not confirmed”, the “calcium influx in a trigeminal neuron group” value [2] was “calcium influx induced” and the “neurons sensitive to probenecid among neurons responding to capsaicin” value ([2]; 2 μM capsaicin) was 5 out of 111. For the same compound, the “share of capsaicin-sensitive neurons that responded to probenecid” value ([2]; 2 μM capsaicin) was 3.5%, the “response of 2-APB reactive neurons to probenecid” value ([2]; 2-APB 300 μM) was “responded” and the “response of major capsaicin-sensitive and all capsaicin/cinnamaldehyde-sensitive neuron groups to probenecid” value ([2]; capsaicin 2 μM, cinnamaldehyde 300 μM) was “did not exhibit probenecid induced intracellular calcium influx”. For the same compound, the “response of menthol-reactive TRPM8 positive neurons to probenecid” value ([2]; menthol 400 μM) was “did not respond”, the “TRPV1 activation (calcium imaging)” value [3] was “only TRPV2 was activated; also recorded: not confirmed” and the “TRPV3 activation (calcium imaging)” value [4] was “only TRPV2 was activated; also recorded: not confirmed”.
